Source: patent US20230080144A1, “REAL-TIME FLUORESCENCE IMAGING SENSOR FOR MEASURING GLUTATHIONE IN ENDOPLASMIC RETICULUM AND METHOD USING SAME” (CELL2IN, INC., priority 2019, published 2023)

Tested on: UC-MSCs
Experiment: Cytotoxicity test (EZ-cytox)
Assay type: cell-based
Conditions: for IC50: 24 hours treatment at 5, 10, 20 and 40 μM, absorbance at 450 nm
Method: (1) UC-MSCs (4×10^3 cells/well) were cultured in 96-well dishes for 24 hours. (2) The cells were treated with […] of each of ER-FT derivative compounds (Formulas IV to VII) at concentrations of 5, 10, 20 and 40 μM and then incubated at 37° C. for 24 hours. (3) 10 μl of 10× EZ-cytox was added to each well, followed by incubation for 3 hours. (4) The absorbance at 450 nm was measured using a plate reader (reference wavelength: 600 to 650 nm).

| Structure (SMILES) | toxicity (comparison among Formulas IV to VII) (24 hours) | IC50 [µM] |
| --- | --- | --- |
| Cc1ccc(S(=O)(=O)NCCNC(=O)C2CCN(C(=O)C(C#N)=Cc3cc4cc5c6c(c4oc3=O)CCCN6CCC5)CC2)cc1 [Formula IV] | lowest toxicity | 43.4 |
| N#CC(=Cc1cc2cc3c4c(c2oc1=O)CCCN4CCC3)C(=O)N1CCC(C(=O)NCCCOCCOCCOCCCNC(=O)c2c(F)c(F)c(F)c(F)c2F)CC1 [Formula VII] |  | 13.3 |
| N#CC(=Cc1cc2cc3c4c(c2oc1=O)CCCN4CCC3)C(=O)N1CCC(C(=O)NCCNC(=O)c2c(F)c(F)c(F)c(F)c2F)CC1 [Formula VI] |  | 33.4 |
| Cc1ccc(S(=O)(=O)NCCCOCCOCCOCCCNC(=O)C2CCN(C(=O)C(C#N)=Cc3cc4cc5c6c(c4oc3=O)CCCN6CCC5)CC2)cc1 [Formula V] |  | 36.4 |
